Test results from patent publication US7071166B2, “Skin wound healing promoters” (Santen Pharmacetical Co., Ltd., priority 2000, dated 2006).
Where a SMILES comes first, the peptide text is derived from it.

Key:
[1] = tested on: ear tissue pieces (epidermal cell layer); experiment: Action on epidermal extension (cultured rat ear tissue pieces); format: cell-based, rats (Spraque-Dawley); details: for Extension length of epidermis: TCM 199 medium, cultured 24 hours, substance P or FGLM 20 μM, IGF-I 10 ng/ml, average of 12 samples; for Epidermal extension compared with control (in words): each drug used solely
Experimental: Excessive pentobarbital was administered to rats (Spraque-Dawley), and then ear tissue pieces of about 2×4 mm were prepared. Into a 60 mm Petri dish was put 18 ml of each TCM 199 culture medium containing each of test drugs in Table 1 [substance P, FGLM (SEQ ID NO: 2), IGF-I, substance P+IGF-I and FGLM (SEQ ID NO: 2)+IGF-I], and […] were added to each Petri dish (12 samples: three sections per group). The tissue pieces were cultured in a CO2 incubator (37° C.·5% CO2) for 24 hours, the tissue pieces were fixed with ethanol-acetic acid (volume ratio 95:5) to prepare three tissue sections per tissue piece according to the conventional method. The tissue sections were stained with hematoxylin-eosin, and then length of a epidermal cell layer having extended cut surfaces was measured. The tissue pieces were cultured under the same condition as mentioned above using a culture medium containing no test drug to prepare controls. The values in the table are the average of 12 samples.

[2] = tested on: full-thickness wounds on back skin of non-diabetes rats (non DM Rat); experiment: Action on skin wound healing, non-diabetes rats; format: in vivo, rats (Wistar); details: ointment once a day, substance P 2.5 mg/ml, IGF-I 1 μg/ml, average of five
Experimental: (§1) Streptozotocin (70 mg/kg BW) dissolved in a citric acid buffer was injected intravenously into tails of rats (Wistar) under diethyl ether inhalation anesthesia to prepare diabetes rats (DM Rat) (five rats per group). An equal amount of the citric acid buffer alone was injected intravenously into rats (Wistar) to prepare non-diabetes rats (non DM Rat) (five rats per group). Four weeks after the intravenous injection, the back of all the rats was shaved with hair clippers under diethyl ether inhalation anesthesia, and hair was removed with cream for depilation. After 24 hours, five full-thickness (i.e. epidermis and dermis) wounds were made on back skin in equal intervals with a trepan for skin biopsy having a diameter of 5 mm. Confirming hemostasis, each ointment in Tables 2 and 3 was applied on the wound once a day. Just before applying the ointment once a day, the back wounds were photographed, and their areas were measured. […] The values in these tables are the average of five samples.

[3] = tested on: full-thickness wounds on back skin of diabetes rats (DM Rat); experiment: Action on skin wound healing, streptozotocin diabetes rats; format: in vivo, rats (Wistar); details: ointment once a day, substance P 2.5 mg/ml, IGF-I 1 μg/ml, average of five
Experimental: as §1

Molecule	Extension length of epidermis [1] [μm]	Epidermal extension compared with control (in words) [1]	Skin wound area of non-diabetes rat ([2]; 1st day) [%]	Skin wound area of non-diabetes rat ([2]; After 2 days) [%]	Skin wound area of non-diabetes rat ([2]; After 4 days) [%]	Skin wound area of non-diabetes rat ([2]; After 6 days) [%]	Skin wound area of diabetes rat ([3]; 1st day) [%]	Skin wound area of diabetes rat ([3]; After 1 day) [%]	Skin wound area of diabetes rat ([3]; After 4 days) [%]	Skin wound area of diabetes rat ([3]; After 7 days) [%]	Skin wound area of diabetes rat ([3]; After 10 days) [%]
CSCC[C@H](NC(=O)[C@H](CC(C)C)NC(=O)CNC(=O)[C@@H](N)Cc1ccccc1)C(N)=O [FGLM, Phe-Gly-Leu-Met-NH2] (H-FGLM-NH2)	55.37	almost as long as that in the case where the control is used	–	–	–	–	–	–	–	–	–
CSCC[C@H](NC(=O)[C@H](CC(C)C)NC(=O)CNC(=O)[C@H](Cc1ccccc1)NC(=O)[C@H](Cc1ccccc1)NC(=O)[C@H](CCC(N)=O)NC(=O)[C@H](CCC(N)=O)NC(=O)[C@@H]1CCCN1C(=O)[C@H](CCCCN)NC(=O)[C@@H]1CCCN1C(=O)[C@@H](N)CCCNC(=N)N)C(N)=O [Substance P, Arg-Pro-Lys-Pro-Gln-Gln-Phe-Phe-Gly-Leu-Met-NH2]	72.57	almost as long as that in the case where the control is used	100	88	74	59	100	90	77	68	44
IGF-I: insulin-like growth factor-I	50.68	almost as long as that in the case where the control is used	100	81	66	43	100	89	64	52	27
